ChEMBL document CHEMBL5724914, “Linking interpersonal differences in gut microbiota composition and drug biotransformation activity” (2024)

Experiments:
[1] = The drug is tested on Z-013 corresponding to rabbit gut metagenome with ENA study accession number: PRJEB37062 and ENA sample accession number: ERS12561813 for biotransformation under anaerobic condition. The drug concentrations were measured over 9 timepoints collected between 0 and 24 hours of incubation by liquid-chromatography-coupled mass spectrometry (LC–MS); conditions: 2 µM
[2] = The drug is tested on WLS-370 corresponding to human gut metagenome with ENA study accession number: PRJEB37062 and ENA sample accession number: ERS12561793 for biotransformation under anaerobic condition. The drug concentrations were measured over 9 timepoints collected between 0 and 24 hours of incubation by liquid-chromatography-coupled mass spectrometry (LC–MS); conditions: 2 µM
[3] = human gut metagenome, 24 h, 2 µM
[4] = The drug is tested on WLS-010 corresponding to human gut metagenome with ENA study accession number: PRJEB37062 and ENA sample accession number: ERS12561743 for biotransformation under anaerobic condition. The drug concentrations were measured over 9 timepoints collected between 0 and 24 hours of incubation by liquid-chromatography-coupled mass spectrometry (LC–MS); conditions: 2 µM
[5] = The drug is tested on WLS-027 corresponding to human gut metagenome with ENA study accession number: PRJEB37062 and ENA sample accession number: ERS12561744 for biotransformation under anaerobic condition. The drug concentrations were measured over 9 timepoints collected between 0 and 24 hours of incubation by liquid-chromatography-coupled mass spectrometry (LC–MS); conditions: 2 µM
[6] = The drug is tested on WLS-082 corresponding to human gut metagenome with ENA study accession number: PRJEB37062 and ENA sample accession number: ERS12561751 for biotransformation under anaerobic condition. The drug concentrations were measured over 9 timepoints collected between 0 and 24 hours of incubation by liquid-chromatography-coupled mass spectrometry (LC–MS); conditions: 2 µM
[7] = human gut metagenome, 24 h, 2 µM; remark: listed apart in the source
[8] = The drug is tested on Z-025 corresponding to rabbit gut metagenome with ENA study accession number: PRJEB37062 and ENA sample accession number: ERS12561824 for biotransformation under anaerobic condition. The drug concentrations were measured over 9 timepoints collected between 0 and 24 hours of incubation by liquid-chromatography-coupled mass spectrometry (LC–MS); conditions: 2 µM
[9] = The drug is tested on WLS-069 corresponding to human gut metagenome with ENA study accession number: PRJEB37062 and ENA sample accession number: ERS12561748 for biotransformation under anaerobic condition. The drug concentrations were measured over 9 timepoints collected between 0 and 24 hours of incubation by liquid-chromatography-coupled mass spectrometry (LC–MS); conditions: 2 µM
[10] = The drug is tested on WLS-007 corresponding to human gut metagenome with ENA study accession number: PRJEB37062 and ENA sample accession number: ERS12561742 for biotransformation under anaerobic condition. The drug concentrations were measured over 9 timepoints collected between 0 and 24 hours of incubation by liquid-chromatography-coupled mass spectrometry (LC–MS); conditions: 2 µM
[11] = human gut metagenome, 24 h, 2 µM; remark: listed apart in the source
[12] = The drug is tested on Z-008 corresponding to metagenome with ENA study accession number: PRJEB37062 and ENA sample accession number: ERS12561808 for biotransformation under anaerobic condition. The drug concentrations were measured over 9 timepoints collected between 0 and 24 hours of incubation by liquid-chromatography-coupled mass spectrometry (LC–MS); conditions: 2 µM
[13] = The drug is tested on WLS-090 corresponding to human gut metagenome with ENA study accession number: PRJEB37062 and ENA sample accession number: ERS12561753 for biotransformation under anaerobic condition. The drug concentrations were measured over 9 timepoints collected between 0 and 24 hours of incubation by liquid-chromatography-coupled mass spectrometry (LC–MS); conditions: 2 µM
[14] = human gut metagenome, 24 h, 2 µM; remark: listed apart in the source
[15] = human gut metagenome, 24 h, 2 µM; remark: listed apart in the source
[16] = The drug is tested on Z-030 corresponding to mouse gut metagenome with ENA study accession number: PRJEB37062 and ENA sample accession number: ERS12561829 for biotransformation under anaerobic condition. The drug concentrations were measured over 9 timepoints collected between 0 and 24 hours of incubation by liquid-chromatography-coupled mass spectrometry (LC–MS); conditions: 2 µM
[17] = human gut metagenome, 24 h, 2 µM; remark: listed apart in the source
[18] = The drug is tested on Z-014 corresponding to rat gut metagenome with ENA study accession number: PRJEB37062 and ENA sample accession number: ERS12561814 for biotransformation under anaerobic condition. The drug concentrations were measured over 9 timepoints collected between 0 and 24 hours of incubation by liquid-chromatography-coupled mass spectrometry (LC–MS); conditions: 2 µM
[19] = human gut metagenome, 24 h, 2 µM; remark: listed apart in the source
[20] = human gut metagenome, 24 h, 2 µM; remark: listed apart in the source
Further: call rule not given here.

SMILES | Bacterial Biotransformation [1] | Bacterial Biotransformation [2] | Bacterial Biotransformation [3] | Bacterial Biotransformation [4] | Bacterial Biotransformation [5] | Bacterial Biotransformation [6] | Bacterial Biotransformation [7] | Bacterial Biotransformation [8] | Bacterial Biotransformation [9] | Bacterial Biotransformation [10] | Bacterial Biotransformation [11] | Bacterial Biotransformation [12] | Bacterial Biotransformation [13] | Bacterial Biotransformation [14] | Bacterial Biotransformation [15] | Bacterial Biotransformation [16] | Bacterial Biotransformation [17] | Bacterial Biotransformation [18] | Bacterial Biotransformation [19] | Bacterial Biotransformation [20]
CC[C@@H](CO)NC(=O)[C@@H]1C=C2c3cccc4c3c(cn4C)C[C@H]2N(C)C1.O=C(O)/C=C\C(=O)O [METHYSERGIDE MALEATE] | Compound NOT metabolized | Compound NOT metabolized | Compound metabolized | Compound NOT metabolized | Compound NOT metabolized | Compound NOT metabolized | Compound metabolized | Compound NOT metabolized | Compound NOT metabolized | Compound NOT metabolized | Compound NOT metabolized | Compound NOT metabolized | Compound NOT metabolized | Compound NOT metabolized | Compound NOT metabolized | Compound NOT metabolized | Compound NOT metabolized | Compound NOT metabolized | Compound NOT metabolized | Compound NOT metabolized
CCN(CC)CCNC(=O)c1cc(Cl)c(N)cc1OC [METOCLOPRAMIDE] | Compound NOT metabolized | Compound NOT metabolized | Compound NOT metabolized | Compound NOT metabolized | Compound NOT metabolized | Compound NOT metabolized | Compound NOT metabolized | Compound NOT metabolized | Compound NOT metabolized | Compound NOT metabolized | Compound NOT metabolized | Compound NOT metabolized | Compound NOT metabolized | Compound NOT metabolized | Compound NOT metabolized | Compound NOT metabolized | Compound NOT metabolized | Compound NOT metabolized | Compound NOT metabolized | Compound NOT metabolized
Cc1ccccc1N1C(=O)c2cc(S(N)(=O)=O)c(Cl)cc2NC1C (stereo not given) [METOLAZONE] | Compound NOT metabolized | Compound NOT metabolized | Compound NOT metabolized | Compound NOT metabolized | Compound NOT metabolized | Compound NOT metabolized | Compound NOT metabolized | Compound metabolized | Compound NOT metabolized | Compound NOT metabolized | Compound NOT metabolized | Compound NOT metabolized | Compound metabolized | Compound NOT metabolized | Compound NOT metabolized | Compound NOT metabolized | Compound metabolized | Compound NOT metabolized | Compound metabolized | Compound NOT metabolized
COCCc1ccc(OCC(O)CNC(C)C)cc1.COCCc1ccc(OCC(O)CNC(C)C)cc1.O=C(O)C(O)C(O)C(=O)O (stereo not given) [METOPROLOL TARTRATE] | Compound NOT metabolized | Compound metabolized | Compound metabolized | Compound NOT metabolized | Compound NOT metabolized | Compound NOT metabolized | Compound NOT metabolized | Compound metabolized | Compound NOT metabolized | Compound NOT metabolized | Compound metabolized | Compound NOT metabolized | Compound metabolized | Compound metabolized | Compound NOT metabolized | Compound NOT metabolized | Compound metabolized | Compound NOT metabolized | Compound NOT metabolized | Compound NOT metabolized
COc1c(C)c2c(c(O)c1C/C=C(\C)CCC(=O)OCCN1CCOCC1)C(=O)OC2 [MYCOPHENOLATE MOFETIL] | Compound metabolized | Compound metabolized | Compound metabolized | Compound metabolized | Compound metabolized | Compound metabolized | Compound metabolized | Compound metabolized | Compound metabolized | Compound metabolized | Compound metabolized | Compound metabolized | Compound metabolized | Compound metabolized | Compound metabolized | Compound NOT metabolized | Compound metabolized | Compound metabolized | Compound NOT metabolized | Compound metabolized
